# Experiments:
# [1] = system: all mosquito P450s of the panel apart from CYP6Z2 (CYP6M2, CYP6P2, CYP6P3, CYP6P4, CYP9J5); experiment: in vitro; details: Anopheles gambiae
# [2] = molecular target: CYP6M2 (Anopheles gambiae, UniProt Q7Q449); experiment: biochemical
# [3] = molecular target: T1, CYP6Z2 (Anopheles gambiae, UniProt A8I285); experiment: biochemical
# T1 sequence (A8I285 1-492): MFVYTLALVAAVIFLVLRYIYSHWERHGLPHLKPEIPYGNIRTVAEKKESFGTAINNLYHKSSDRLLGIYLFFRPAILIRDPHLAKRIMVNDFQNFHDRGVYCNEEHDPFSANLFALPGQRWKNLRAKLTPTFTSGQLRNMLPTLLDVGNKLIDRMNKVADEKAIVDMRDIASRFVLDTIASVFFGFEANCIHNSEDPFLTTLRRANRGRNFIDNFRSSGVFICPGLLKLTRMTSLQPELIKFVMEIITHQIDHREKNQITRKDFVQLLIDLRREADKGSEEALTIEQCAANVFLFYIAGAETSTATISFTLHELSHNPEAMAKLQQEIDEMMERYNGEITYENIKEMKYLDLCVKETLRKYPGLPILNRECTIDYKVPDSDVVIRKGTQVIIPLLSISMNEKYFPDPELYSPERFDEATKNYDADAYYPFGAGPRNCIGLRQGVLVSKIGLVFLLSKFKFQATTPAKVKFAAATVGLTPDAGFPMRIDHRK
# T1 sequence (Q86QH5 1-679 partner): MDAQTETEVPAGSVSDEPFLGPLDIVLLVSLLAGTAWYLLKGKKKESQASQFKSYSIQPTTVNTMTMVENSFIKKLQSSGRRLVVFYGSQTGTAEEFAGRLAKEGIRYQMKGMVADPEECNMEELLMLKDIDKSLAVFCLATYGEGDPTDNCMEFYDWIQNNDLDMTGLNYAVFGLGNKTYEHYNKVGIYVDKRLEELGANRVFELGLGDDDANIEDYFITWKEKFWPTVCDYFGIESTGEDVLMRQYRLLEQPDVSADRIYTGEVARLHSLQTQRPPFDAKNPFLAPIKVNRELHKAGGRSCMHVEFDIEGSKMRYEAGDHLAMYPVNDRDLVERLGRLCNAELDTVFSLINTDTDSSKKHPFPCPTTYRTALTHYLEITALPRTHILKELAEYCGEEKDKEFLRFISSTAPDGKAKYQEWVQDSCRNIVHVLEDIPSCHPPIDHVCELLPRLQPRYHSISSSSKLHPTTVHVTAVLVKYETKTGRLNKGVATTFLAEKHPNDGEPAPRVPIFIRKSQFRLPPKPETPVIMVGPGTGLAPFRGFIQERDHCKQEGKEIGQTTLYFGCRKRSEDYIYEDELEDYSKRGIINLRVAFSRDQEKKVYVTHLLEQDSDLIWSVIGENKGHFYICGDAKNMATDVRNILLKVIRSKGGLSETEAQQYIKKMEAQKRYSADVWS
# T1 sequence (Q86QH4 1-128 partner): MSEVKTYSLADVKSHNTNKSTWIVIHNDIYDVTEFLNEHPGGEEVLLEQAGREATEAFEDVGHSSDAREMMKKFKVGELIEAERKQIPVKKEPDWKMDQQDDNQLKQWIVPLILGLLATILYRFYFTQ
# [4] = molecular target: T2, CYP6P2 (Anopheles gambiae, UniProt Q8T629, V81I); experiment: biochemical; details: IC50 of DEF metabolism
# T2 sequence (Q8T629 1-507 V81I): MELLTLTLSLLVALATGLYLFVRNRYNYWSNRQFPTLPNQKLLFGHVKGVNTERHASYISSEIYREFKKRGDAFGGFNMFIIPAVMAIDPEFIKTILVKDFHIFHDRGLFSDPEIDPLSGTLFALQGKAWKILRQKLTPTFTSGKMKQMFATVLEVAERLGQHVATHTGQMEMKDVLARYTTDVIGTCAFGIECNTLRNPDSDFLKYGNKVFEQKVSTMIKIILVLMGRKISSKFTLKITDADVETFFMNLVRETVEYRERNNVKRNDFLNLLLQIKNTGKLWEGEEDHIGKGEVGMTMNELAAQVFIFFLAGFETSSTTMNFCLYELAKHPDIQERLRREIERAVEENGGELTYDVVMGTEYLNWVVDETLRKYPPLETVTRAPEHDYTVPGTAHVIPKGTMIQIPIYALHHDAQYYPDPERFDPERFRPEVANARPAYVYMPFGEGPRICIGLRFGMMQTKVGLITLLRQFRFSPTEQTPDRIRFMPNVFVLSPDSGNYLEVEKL
# T2 sequence (Q7QFI3 1-587 partner): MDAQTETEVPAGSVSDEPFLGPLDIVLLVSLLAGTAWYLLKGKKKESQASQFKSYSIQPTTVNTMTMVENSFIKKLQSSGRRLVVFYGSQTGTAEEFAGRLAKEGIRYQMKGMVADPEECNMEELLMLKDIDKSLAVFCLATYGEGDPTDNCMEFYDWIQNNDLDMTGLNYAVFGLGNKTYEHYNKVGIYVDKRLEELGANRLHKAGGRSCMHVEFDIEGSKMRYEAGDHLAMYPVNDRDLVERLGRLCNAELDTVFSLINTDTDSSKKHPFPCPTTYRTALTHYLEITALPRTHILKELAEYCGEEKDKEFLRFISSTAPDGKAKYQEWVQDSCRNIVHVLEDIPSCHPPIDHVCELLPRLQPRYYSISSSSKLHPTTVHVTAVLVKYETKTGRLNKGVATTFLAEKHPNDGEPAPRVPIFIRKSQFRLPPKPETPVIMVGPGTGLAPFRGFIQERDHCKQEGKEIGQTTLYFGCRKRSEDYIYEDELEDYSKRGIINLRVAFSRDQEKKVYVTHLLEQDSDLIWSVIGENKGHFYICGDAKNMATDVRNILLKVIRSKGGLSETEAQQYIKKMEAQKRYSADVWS
# T2 sequence (Q86QH4 1-128 partner): T1 sequence (Q86QH4 1-128 partner)
# [5] = molecular target: T3, CYP6P3 (Anopheles gambiae, UniProt Q8T632); experiment: biochemical
# T3 sequence (Q8T632 1-509): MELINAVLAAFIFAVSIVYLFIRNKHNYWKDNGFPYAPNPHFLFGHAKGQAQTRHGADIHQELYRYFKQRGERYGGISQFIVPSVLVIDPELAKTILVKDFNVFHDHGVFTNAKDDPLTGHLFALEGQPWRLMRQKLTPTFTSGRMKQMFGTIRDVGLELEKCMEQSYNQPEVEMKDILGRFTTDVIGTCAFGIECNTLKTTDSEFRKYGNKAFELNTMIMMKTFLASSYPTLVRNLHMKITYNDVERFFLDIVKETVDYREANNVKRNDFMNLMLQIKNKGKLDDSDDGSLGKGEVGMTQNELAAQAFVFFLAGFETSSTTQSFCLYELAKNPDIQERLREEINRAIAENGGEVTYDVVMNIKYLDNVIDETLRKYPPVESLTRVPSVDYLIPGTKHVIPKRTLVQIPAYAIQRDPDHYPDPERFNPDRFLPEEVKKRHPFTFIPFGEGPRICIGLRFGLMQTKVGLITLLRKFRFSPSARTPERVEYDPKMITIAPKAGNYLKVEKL
# T3 sequence (Q86QH5 1-679 partner): T1 sequence (Q86QH5 1-679 partner)
# T3 sequence (Q86QH4 1-128 partner): T1 sequence (Q86QH4 1-128 partner)
# [6] = molecular target: T4, CYP9J5 (Anopheles gambiae, UniProt Q5TN57); experiment: biochemical
# T4 sequence (Q5TN57 1-545): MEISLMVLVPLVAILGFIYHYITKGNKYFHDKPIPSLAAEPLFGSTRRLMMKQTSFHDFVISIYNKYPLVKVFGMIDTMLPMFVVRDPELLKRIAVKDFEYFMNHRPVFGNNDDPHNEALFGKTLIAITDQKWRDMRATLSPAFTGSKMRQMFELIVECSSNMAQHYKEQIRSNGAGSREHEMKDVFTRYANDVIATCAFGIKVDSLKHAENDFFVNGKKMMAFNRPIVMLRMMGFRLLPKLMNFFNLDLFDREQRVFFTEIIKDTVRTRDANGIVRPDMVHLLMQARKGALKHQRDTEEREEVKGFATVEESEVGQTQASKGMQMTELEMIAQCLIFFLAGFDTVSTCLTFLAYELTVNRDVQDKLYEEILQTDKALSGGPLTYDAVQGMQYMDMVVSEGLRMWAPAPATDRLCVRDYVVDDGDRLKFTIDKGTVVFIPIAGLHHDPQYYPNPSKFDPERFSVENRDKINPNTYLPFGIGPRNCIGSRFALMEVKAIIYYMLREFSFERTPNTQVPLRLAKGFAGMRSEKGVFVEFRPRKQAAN
# T4 sequence (Q86QH5 1-679 partner): T1 sequence (Q86QH5 1-679 partner)
# T4 sequence (Q86QH4 1-128 partner): T1 sequence (Q86QH4 1-128 partner)
# Sequence of CYP6M2 (Q7Q449 1-499, one chain of several): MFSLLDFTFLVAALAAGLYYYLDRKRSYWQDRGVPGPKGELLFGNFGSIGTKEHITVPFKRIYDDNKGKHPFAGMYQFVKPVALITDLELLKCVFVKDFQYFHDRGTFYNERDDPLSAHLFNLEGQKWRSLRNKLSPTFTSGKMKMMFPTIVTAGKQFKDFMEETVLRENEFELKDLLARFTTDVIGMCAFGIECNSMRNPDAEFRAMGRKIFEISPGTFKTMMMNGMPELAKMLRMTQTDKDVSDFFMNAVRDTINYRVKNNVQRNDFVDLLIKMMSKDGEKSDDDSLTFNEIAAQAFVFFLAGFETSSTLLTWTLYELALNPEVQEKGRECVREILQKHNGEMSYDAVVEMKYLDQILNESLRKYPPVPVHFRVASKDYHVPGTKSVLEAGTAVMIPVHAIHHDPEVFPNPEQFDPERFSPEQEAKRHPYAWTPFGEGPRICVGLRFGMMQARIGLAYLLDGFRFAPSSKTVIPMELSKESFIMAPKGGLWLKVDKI
compound,measurement,setting,value
"CC1(C)[C@H](C(=O)O[C@H](C#N)c2cccc(Oc3ccccc3)c2)[C@@H]1C=C(Br)Br [Deltamethrin, (S)-α-cyano-3-phenoxybenzyl (1R,3R)-cis-2,2-dimethyl-3-(2,2-dibromovinyl)-cyclopropanecarboxylate]",IC50,"[1]; pH 7.4, IC50 of DEF activity",1 to 10 µM
same,IC50,"[1]; pH 7.4, category of inhibition of DEF activity",1 to 10 µM
same,IC50,[2],4.24 µM
same,IC50,[3]; IC50 of DEF metabolism,14 µM
same,IC50,[3]; category of inhibition of DEF metabolism,> 10 µM
same,IC50,[4],4.97 µM
same,IC50,[5],3.17 µM
same,IC50,[6],6.05 µM

# From publication PMC6399515 (Insect Biochemistry and Molecular Biology, 2016)
